Key:
Spodoptera litura [1] = settings: for LC50: 3 days after the treatment, NPV 5.5 × 10^5 PIB/ml where combined; for synergistic effects: chemical pesticide combined with the virus, compared with the pesticide alone
Spodoptera litura [2] = assay: Control rate of Spodoptera litura in Brassica oleracea crops in the field; assay type: in vivo; settings: for Control rate One week after the first treatment / Control rate One week after the second treatment / Control rate One week after the third treatment / Control rate Two weeks after the third treatment / Control rate mean: field, NPV 10^6 PIB/mL, Chlorfluazuron 5 ppm, Chlorantraniliprole 1.47 ppm; for Control rate One week after the first treatment / Control rate One week after the second treatment / Control rate One week after the third treatment / Control rate Two weeks after the third treatment: Brassica oleracea; for Control rate mean: mean of the four assessments
From the text: Although mixing of proper pesticides can achieve synergistic effects, the mixture with current concentration for field application equals to twice the amount of pesticides used (If the viruses or pesticides are originally used individually, the mixture would be the same concentration used together). […] The content of Chlorantraniliprole used in the present invention (2% of the current registered concentration, 1.47 ppm) was 50 folds lower than the existing application technique. When mixing with Spodoptera litura nucleopolyhedrovirus, the LT50 of the third instar larvae was less than 2 days and the LT90 was only 3-4 days. […] However, when mixing the low concentration of Chlorantraniliprole with the virus, only 2% of the current registered amount of Chlorantraniliprole was mixed with the virus, 85-95% of control rate was achieved (Table 3).
The concentration of the Spodoptera litura nucleopolyhedrovirus: 10^6 PIB/mL; Chlorfluazuron was 5 ppm (20% of the current registered concentration); Chlorantraniliprole was 1.47 ppm (2% of the current registered concentration)

[3] = system: third instar larvae of Spodoptera litura; assay: Cumulative death rates of third instar larvae (FIG. 1); assay type: in vivo; settings: Chlorantraniliprole 7.36 ppm alone
From the text: The cumulative death rates of the third instar larvae of Spodoptera litura to 10% of the registered concentration of Chlorantraniliprole (7.36 ppm), nucleopolyhedrovirus (5.5×10^5 PIB/ml) and the mixture of 10% of the registered concentration of Chlorantraniliprole+nucleopolyhedrovirus were shown in FIG. 1. It cost 11 days for the treatment of nucleopolyhedrovirus alone to achieve 100% of death rate. For the treatment of Chlorantraniliprole alone, only 80% of death rate was achieved.

[4] = system: third instar larvae of Spodoptera litura; assay: Indoor experiments: death rates with seven concentrations of Chlorantraniliprole mixed with nucleopolyhedrovirus (FIG. 2); assay type: in vivo; settings: 40 ppm of Chlorantraniliprole
Method: In the indoor experiments, the third instar larvae of Spodoptera litura were treated with the mixtures of seven different concentrations of Chlorantraniliprole with the nucleopolyhedrovirus. […] The synergistic effect of the mixture was more significant especially in the comparison of the low death rate caused by the low concentration of Chlorantraniliprole (see FIG. 2).

[5] = system: third instar larvae of Spodoptera litura; assay: Lethal time (LT50/LT90) of third instar larvae treated with nucleopolyhedrovirus and low concentration pesticides; assay type: in vivo; settings: 1.47 ppm of Chlorantraniliprole alone
From the text: When treated with 5.5×10^5 PIB/ml of the Spodoptera litura nucleopolyhedrovirus alone, the 50% lethal time (LT50) of the third instar larvae was 9.2 days. But when treated with the formulation of the present invention, 5.5×10^5 PIB/ml of the virus and 1.47 ppm of Chlorantraniliprole, the LT50 was shortened to 1-2 days and the 90% of lethal time (LT90) was achieved by 3-4 days (see Table 1).

| Structure (SMILES) | LC50 (Spodoptera litura [1]) | Control rate One week after the first treatment (Spodoptera litura [2]) | Control rate One week after the second treatment (Spodoptera litura [2]) | Control rate One week after the third treatment (Spodoptera litura [2]) | Control rate Two weeks after the third treatment (Spodoptera litura [2]) | Control rate mean (Spodoptera litura [2]) | death rate achieved [3] | synergistic effects (Spodoptera litura [1]) | death rate [4] | pest control effects in the field (Spodoptera litura [2]; low concentration (1.47 ppm) administered alone) | pest control effect [5] |
| --- | --- | --- | --- | --- | --- | --- | --- | --- | --- | --- | --- |
| CCOCn1c(-c2ccc(Cl)cc2)c(C#N)c(Br)c1C(F)(F)F [Chlorfenapyr] | 11.8 ppm | – | – | – | – | – | – | – | – | – | – |
| O=C(NC(=O)c1c(F)cccc1F)Nc1cc(Cl)c(Oc2ncc(C(F)(F)F)cc2Cl)c(Cl)c1 [Chlorfluazuron] | 7.48 ppm | −3.2% | −50.3% | 38.6% | 19.2% | 1.0% | – | – | – | – | – |
| CNC(=O)c1cc(Cl)cc(C)c1NC(=O)c1cc(Br)nn1-c1ncccc1Cl [Chlorantraniliprole] | 1.36 ppm | 31.6% | 22.9% | 77.3% | −5% | 32% | 80% | 4 folds | 100% | no pest control effects | no pest control effect |
| N#Cc1ccc(CC(=NNC(=O)Nc2ccc(OC(F)(F)F)cc2)c2cccc(C(F)(F)F)c2)cc1 (mixture of isomers) [Metaflumizone] | – | – | – | – | – | – | – | interfered effects | – | – | – |
